The molecules below were run against T1, cloned human dopamine D3 receptors (Homo sapiens, UniProt P35462) (assay: [N-Methyl-3H]Spiroperidol binding to cloned human dopamine D3 receptors). Details: read-out: D3 Ki.
T1 construct: expressed in transfected cells; membrane homogenate
Source text: [N-Methyl-^3H]Spiroperidol Binding to Cloned Human Dopamine D3 Receptors
This assay measures the in vitro activity of compounds on cloned human dopamine (D3) receptors and predicts the direct dopamine-blocking properties of putative neuropsychiatric agents at human dopamine D3 receptors.
The D3 gene was isolated from a human striatal cDNA library (Stratagene). The gene was sequenced and sub-cloned into the expression vector RC/RSV (Invitrogen). CHO (Chinese Hamster Ovary) cells were stably transfected with 10 μg of the D3/RSV plasmid using the DOTAP method from Boehringer Mannheim and 72 clones that were G418 resistant were isolated. Using mRNA and binding displacement data a single high expressing clone was identified. This clone was then grown in large batches for the purpose of developing a 96 well format assay.
• 1. One plate (10 cm) with approximately 2-3 million D3 cells per plate is incubated with 1 ml of Trypsin-EDTA at room temperature for ˜2 min or until cells have lifted off plates. Four ml of Ham's F12+10% Fetal Bovine Serum+1% Penicillin/Streptomycin+G418 (400 μg/ml) medium are added to resuspend cells and 1 ml of this is added to each large plate (15 cm) containing 19 ml of the same medium as mentioned above. • 2. The 5 large plates are incubated at 37° C.+5% CO2 for ˜3 days or until the cells are confluent. • 3. After these plates are confluent, they are split into 10 large plates. Medium is aspirated off, 2 ml of Trypsin-EDTA are added to each plate and plates are incubated at RT for 2 min or until cells have lifted off the plate. Eight ml of the F12 medium (same medium as #1 above) are added to each plate (10 ml total) to resuspend the cells and 5 ml are transferred to the 2 new plates containing 15 ml of the F12 media. • 4. The 10 large plates are incubated at 37° C.+5% CO2 for ˜2 days or until the cells are confluent. • 5. The 10 large plates are split into 60 large plates (using Trypsin-EDTA as #3 except 4 ml of F12 medium are added to resuspend cells and 1 ml is aliquoted to 6 new plates containing 19 ml of F12 medium each). • 6. Plates are incubated at 37° C.+5% CO2 for ˜3 days or until cell are confluent. • 7. The 60 large plates are then split into 60 roller bottles (100-150 million cells/bottle). Medium is aspirated off, 2 ml of Trypsin-EDTA are added to each plate and incubated at RT for ˜2 minutes or until cells have lifted off plates. Eight ml of F12 medium are added to each plate to resuspend cells and the entire 10 ml are added to 1 roller bottle containing 90 ml of the F12 medium. • 8. The 60 roller bottles are immediately placed on their sides and transferred to the roller bottle incubator. They are incubated at 37° C.+5% CO2 for ˜3-5 days. Cells are spun at 30-40% motor speed in the Form a incubator. • 9. Medium is poured off and cells are washed 2× in PBS. • 10. Cells are then scraped off in 20 ml of PBS and the bottles are rinsed again with 5 ml of PBS to remove any remaining cells. Cells are stored on ice before membrane preparation. • 11. The yield for 60 D3 roller bottles has varied from ˜260-500 mg. • Note: All tissue culture reagents are from Gibco-BRL. C. Membrane Preparation
The cells are harvested into 250 ml centrifuge tubes with 100 volumes of cold phosphate buffered saline (PBS) and spun down (1200×G for 10 min at 4° C.). The medium is removed and 100 ml PBS are added to each centrifuge tube, cells are resuspened and spun down again. The PBS is removed and the final pellet is homogenized in an appropriate volume of 10% DMSO with a polytron on ice at a medium setting.
A 200 μl sample membrane homogenate is added to 200 μl of 1% SDS, vortexed and allowed to stand for 5 min. Aliquots (25, 50 and 100 μl) of this mixture are assayed in duplicate following the standard Bio-Rad DC protein assay protocol (kit catalog number 500-0112) and using reagent S. Absorbance readings are made at 750 nm (note: the most accurate protein OD readings are between 0.1-0.5 units). […]

T1 sequence (P35462 whole entry): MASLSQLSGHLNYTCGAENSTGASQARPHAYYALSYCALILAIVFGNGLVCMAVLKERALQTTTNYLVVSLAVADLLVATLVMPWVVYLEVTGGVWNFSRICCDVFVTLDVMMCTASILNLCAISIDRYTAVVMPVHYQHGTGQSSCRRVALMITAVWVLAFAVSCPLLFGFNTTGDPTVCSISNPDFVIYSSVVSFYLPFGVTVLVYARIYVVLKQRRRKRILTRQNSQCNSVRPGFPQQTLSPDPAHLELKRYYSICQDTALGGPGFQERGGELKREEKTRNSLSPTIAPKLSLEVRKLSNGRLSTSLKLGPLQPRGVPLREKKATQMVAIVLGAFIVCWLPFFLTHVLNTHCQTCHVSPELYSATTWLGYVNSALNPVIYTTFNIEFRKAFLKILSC

SMILES	Ki [nM]
O=C([C@@H]1C[C@H]1CN1CCC(c2noc3ccc(C(F)(F)F)cc23)CC1)N1CCCC(Cn2ccnc2)C1 (mixture of isomers) [A002200835]	0.4
O=C([C@@H]1C[C@H]1CN1CCC(c2csc3cc(C(F)(F)F)ccc23)CC1)N1CCCC(Cn2ccnc2)C1 (mixture of isomers) [A002287512]	0.647
O=C([C@@H]1C[C@H]1CN1CCC(c2nsc3cc(Br)ccc23)CC1)N1CCCC(Cn2ccnc2)C1 (mixture of isomers) [A002329099]	2.06
O=C([C@@H]1C[C@H]1CN1CCN(c2csc3cc(C(F)(F)F)ccc23)CC1)N1CCCC(CN2CCCCC2)C1 (mixture of isomers) [A002437357]	14
O=C([C@@H]1C[C@H]1CN1CCN(c2csc3cc(C(F)(F)F)ccc23)CC1)N1CCCC(CN2CCCNCC2)C1 (mixture of isomers) [A002437358]	8.86
CC1CCCCN1C(=O)[C@@H]1C[C@H]1CN1CCC(c2noc3ccsc23)CC1 (mixture of isomers) [compound 829462]	9.65
CN1CCCC1CCNC(=O)[C@@H]1C[C@H]1CN1CCN(c2csc3cc(C(F)(F)F)ccc23)CC1 (mixture of isomers) [compound 831884]	1.94
O=C([C@@H]1C[C@H]1CN1CCN(c2csc3cc(C(F)(F)F)ccc23)CC1)N1CCCC(Cn2ccnc2)C1 (mixture of isomers) [compound 832268]	2.62
O=C([C@@H]1C[C@H]1CN1CCC(c2noc3ccsc23)CC1)N1CCCC(Cn2ccnc2)C1 (mixture of isomers) [compound 832269]	5.1
CC(C)(C)OC(=O)N1CCCCC1CCNC(=O)[C@@H]1C[C@H]1CN1CCN(c2csc3cc(C(F)(F)F)ccc23)CC1 (mixture of isomers) [compound 832500]	161
CC(C)(C)OC(=O)N1CCCC(CNC(=O)[C@@H]2C[C@H]2CN2CCN(c3csc4cc(C(F)(F)F)ccc34)CC2)C1 (mixture of isomers) [compound 832501]	41.4
O=C(NCCC1CCCCN1)[C@@H]1C[C@H]1CN1CCN(c2csc3cc(C(F)(F)F)ccc23)CC1 (mixture of isomers) [compound 832503]	11.1
O=C(NCC1CCCNC1)[C@@H]1C[C@H]1CN1CCN(c2csc3cc(C(F)(F)F)ccc23)CC1 (mixture of isomers) [compound 832504]	5.77
CC(C)(C)OC(=O)N1CCCCC1CCNC(=O)[C@@H]1C[C@H]1CN1CCC(c2noc3ccsc23)CC1 (mixture of isomers) [compound 832533]	4.12
CC1CCCCN1CCCNC(=O)[C@@H]1C[C@H]1CN1CCN(c2csc3cc(C(F)(F)F)ccc23)CC1 (mixture of isomers) [compound 832578]	25.8
CC(=O)N1CCCCC1CCNC(=O)[C@@H]1C[C@H]1CN1CCN(c2csc3cc(C(F)(F)F)ccc23)CC1 (mixture of isomers) [compound 833064]	28.8

SMILES	Ki [nM]
COc1cccc2c(C3CCN(C[C@@H]4C[C@H]4C(=O)N4CCCC(Cn5ccnc5)C4)CC3)noc12 (mixture of isomers) [compound 833910]	1.09
O=C([C@@H]1C[C@H]1CN1CCC(c2noc3c(C(F)(F)F)cccc23)CC1)N1CCCC(Cn2ccnc2)C1 (mixture of isomers) [compound 833911]	1.26
COc1ccc2c(c1)c(N1CCN(C[C@@H]3C[C@H]3C(=O)N3CCCC(Cn4ccnc4)C3)CC1)nn2C (mixture of isomers) [compound 834173]	5.15
CC1CCC(N2CC(CN3CCN(c4csc5cc(C(F)(F)F)ccc45)CC3)CC2=O)CC1 (racemic) [833953A]	88.8
CCCc1cc(N2CCN(CC3CC3C(=O)NC3CCC(CC)CC3)CC2)nc(C(C)(C)C)n1 (racemic) [compound 817274]	4.49
CCCc1cc(N2CCN(CC3CC3C(=O)NC3CCC(C)CC3)CC2)nc(C(C)(C)C)n1 (racemic) [compound 817275]	3.34
COc1ccc(N2CCN(CC3CC3C(=O)NC3CCC(C)CC3)C(C)C2)cc1 (racemic) [compound 827192]	150
CC1CCC(NC(=O)C2CC2CN2CCC(n3c(=O)[nH]c4ccccc43)CC2)CC1 (racemic) [compound 827211]	353
CCC1CCC(NC(=O)C2CC2CN2CCC(Cc3ccccc3)CC2)CC1 (racemic) [compound 827248]	19.4
CCC1CCC(NC(=O)C2CC2CN2CCC(n3c(=O)[nH]c4ccccc43)CC2)CC1 (racemic) [compound 827250]	45.2
O=C(C1CC1CN1CCC(c2noc3ccsc23)CC1)N1CCN(c2ncccn2)CC1 (racemic) [compound 827394]	391
CN1CCN(C(=O)C2CC2CN2CCC(c3noc4ccsc34)CC2)CC1 (racemic) [compound 829590]	109
O=C(C1CC1CN1CCC(c2noc3ccsc23)CC1)N1CCN(C2CCCCC2)CC1 (racemic) [compound 829591]	72.4
O=C(C1CC1CN1CCC(c2noc3ccsc23)CC1)N1CC=CC1 (racemic) [compound 829594]	364
O=C(C1CC1CN1CCC(c2noc3ccsc23)CC1)N1CCC(Oc2ccc(F)cc2)CC1 (racemic) [compound 829595]	201
CN1CCCN(C(=O)C2CC2CN2CCC(c3noc4ccsc34)CC2)CC1 (racemic) [compound 829597]	226

Next, values leading:

Ki [nM]	SMILES
4.06	O=C(NC1CCN(C(=O)Nc2ccc(Cl)cc2)CC1)C1CC1CN1CCC(c2noc3ccsc23)CC1 (racemic) [832575ES]
17.5	O=C(NC1CCN(C(=O)Nc2ccc(F)cc2)CC1)C1CC1CN1CCC(c2noc3ccsc23)CC1 (racemic) [832576ES]
177	CC1CCC(NC(=O)C2CC2CN2CCN(Cc3ccccc3)CC2)CC1 (racemic) [compound 827202]
30.4	CC1CCC(NC(=O)C2CC2CN2CCC(Cc3ccccc3)CC2)CC1 (racemic) [compound 827209]
159	CCC1CCC(NC(=O)C2CC2CN2CCN(C(=O)OC(C)(C)C)CC2)CC1 (racemic) [compound 827223]
60.6	CCC1CCC(NC(=O)C2CC2CN2CCN(c3ccc(OC)cc3)CC2C)CC1 (racemic) [compound 827231]
153	CCC1CCC(NC(=O)C2CC2CN2CCN(CCc3ccccc3)CC2)CC1 (racemic) [compound 827237]
152	CCC1CCC(NC(=O)C2CC2CN2CCN(Cc3ccc4c(c3)OCO4)CC2)CC1 (racemic) [compound 827240]
89.5	CCC1CCC(NC(=O)C2CC2CN2CCN(Cc3ccccc3)CC2)CC1 (racemic) [compound 827241]
391	O=C(NCc1ccco1)C1CC1CN1CCC(c2noc3ccsc23)CC1 (racemic) [compound 827393]
31.4	O=C(NC1CC2CCC1C2)C1CC1CN1CCC(c2noc3ccsc23)CC1 (racemic) [compound 827395]
111	O=C(Nc1ccccn1)C1CC1CN1CCC(c2noc3ccsc23)CC1 (racemic) [compound 827397]
63.9	CCC1CCC(NC(=O)C2CC2CN2CCC(c3noc4cc(Cl)ccc34)CC2)CC1 (racemic) [compound 829363]
4.76	Cc1cc(NC(=O)C2CC2CN2CCC(c3noc4ccsc34)CC2)sn1 (racemic) [compound 829463]
42.3	O=C(NC1CCCC1)C1CC1CN1CCC(c2noc3ccsc23)CC1 (racemic) [compound 829592]
65.3	CC1CCC(NC(=O)C2CCC2CN2CCC(c3noc4ccsc34)CC2)CC1 (racemic) [compound 829830]

From patent US7772252B2, “Heterocyclic substituted carbonyl derivatives and their use as dopamine D3 receptor ligands” (Aventis Pharmaceuticals Inc., priority 2001, dated 2010)
